Values of other authors in patent US7837990B2, “In vivo expanded NKT cells and methods of use thereof” (The Rockefeller University, priority 2005, dated 2010).

Experiments:
tumor = details: mouse models
NKT cells = details: patients with advanced cancer or healthy volunteers

## CCCCCCCCCCCCCCCCCCCCCCCCCC(=O)N[C@@H](CO[C@H]1O[C@H](CO)[C@H](O)[C@H](O)[C@H]1O)[C@H](O)[C@H](O)CCCCCCCCCCCCCC [KRN-7000, α-galactosyl ceramide]
tumor
  anti-tumor effect: tumor regression in several mouse models
NKT cells
  NKT activation in vivo: transient NKT activation in some individuals
